Results taken from patent US11571484B2, “Compositions that target tumor-associated macrophages and methods of use therefor” (Sanford Burnham Prebys Medical Discovery Institute, priority 2017, dated 2023).

Legend:
[1] = test system: peritoneal macrophages; experiment: In vivo phage display on peritoneal cells of 4T1 tumor-bearing versus normal mice; design: species or system mouse; conditions: phage-displayed peptide
Description: A, Naive phage library was injected intraperitoneally in 4T1 tumor-bearing mice and age-matched normal mice, and allowed to circulate for two h. Peritoneal cells were collected, the accompanying phages were rescued and the peptide-encoding segment of phage DNA was sequenced. […] Peritoneal cells were extracted from the mice, seeded on coverslips, allowed to attach for 2 h, fixed, permeabilized, and stained for CD206. CD206+ cells were counted from 6 different confocal images, 2 from each mouse. C, Highly repeated sequences obtained from the first round of the biopanning experiment shown schematically in panel A. D, Frequency of phage clones encoding UNO or a randomly picked peptide (CIGVSSDC) divided by the total number of repeated sequences) in the 4T1 tumor-bearing and normal mice.
Ten days later, the 4T1 mouse and a Balb/c female mouse of the matched age, were injected with 500 μL of a 7×10^10 pfu/mL of purified CX7C long-circulating library that bears a mutation on the p17 protein of tail fiber^45. After 2 h the mice were anesthetized and peritoneal cells were collected, washed by centrifugation, and lysed by hand-held homogenizer in 2 mL of LB+NP40 1%. The phage was amplified in E. coli strain BLT5403 for high throughput sequencing of peptide encoding segment of the phage genomic DNA using Ion Torrent semiconductor sequencing system.
In vivo phage display was carried out on orthotopic breast cancer bearing mice as outlined in FIG. 1A. Compared to peritoneal cells of healthy mice, […] macrophages were ˜5-fold overrepresented in Balb/c mice bearing metastatic syngeneic 4T1 breast tumors (FIG. 1B). We hypothesized that a peptide that binds to peritoneal macrophages in tumor-bearing mice may also target M2-like TAMs. Mice with 4T1 tumors were injected intraperitoneally (i.p.) with a phage library expressing 9-amino acid cyclic CX7C peptides. After 2 h, peritoneal cells were collected, bound phages were rescued by amplification, and the resulting phage pool was subjected to high-throughput sequencing of the peptide-encoding segment of the phage genome. […]

[2] = test system: RAW 267.4 cells; experiment: Phage biopanning on cultured CD206- RAW 267.4 macrophages; type: cell-based, mouse; conditions: phage-displayed peptide, 4 °C overnight
Description: A, Cultured RAW 267.4 mouse macrophages were fixed with PFA and stained with rat anti-CD206 (red) and counterstained with DAPI (blue). B, Phage display on RAW 267.4 cells. Cells were lifted using a cell scraper, centrifuged, brought to 4° C. and incubated with 0.5 mL of the same phage library used for the in vivo experiments (0.5 mL of 7×10^10 pfu/mL)+0.5 mL of DMEM, at 4° C. overnight. Cells were then washed four times resuspending in PBS and placing in a new tube every time, lastly the cells were suspended in LB+NP40%, lysed and phage insert were sequenced. The UNO clone is […] of the list (red). Only the top 50 hits from the screen are shown. Scale bar: 50 μm.
Mouse macrophage cell line Raw 267.4 (ATCC, VA, USA) was cultured in DMEM with FBS and antibiotics. Cells from a 25 cm^2 flask (˜3×10^6 cells) were lifted using a cell scraper, centrifuged, brought to 4. C and incubated with 0.5 mL of the same purified library used for the in vivo experiments (0.5 mL of 7×10^10 pfu/mL)+0.5 mL of DMEM, at 4-C overnight. Cells were then washed four times by re-suspending in PBS and placing them in a new tube every time, and finally suspended in LB+1% NP40, lysed and subjected to high throughput sequencing.

[3] = test system: MEMs in WT-GBM tumors; experiment: Free peptide homing and immunofluorescence in the orthotopic WT-GBM glioblastoma model; conditions: 30 nmoles i.v., 2 h
Description: (§1) Thirty nmoles of FAM-UNO or FAM-control peptide were injected intravenously into mice and allowed to circulate for 2 h. Mice were then sacrificed and tumor and tissues were analyzed by immunofluorescence using rabbit anti-FAM (green) and rat anti-CD206 (red) antibodies, and counterstained with DAPI. […] The metastases were induced by i.v. inoculation of B16F10 melanoma cells. […] Blue: DAPI. Representative fields from multiple sections (n≥3) prepared from at least 3 tumors are shown. Scale bar: 50 μm. Images shown are representative fields from multiple sections (≥3) prepared from at least 3 tumors (n≥3 mice). The graphs show mean+SEM of FAM signal quantified as described in Materials and Methods.
(§2) Tumor models were induced according to protocols approved by the Estonian Ministry of Agriculture, Committee of Animal Experimentation (permit #48). For the 4T1 breast model, 8-week old female Balb/c mice were injected in the mammary fat pad with 10^6 cells dispersed in 50 μL of PBS. For homing studies, mice were used 10 days later, when the tumor had reached ˜150 mm^3. For MCF-7 breast model, 8-week old female nude mice were implanted with an estrogen pellet, and 1 week later inoculated with 5×10^6 MCF-7 cells in 100 μL of cold Matrigel (BD Biosciences, CA, USA). Mice were used for homing studies three weeks later (tumor volume˜150 mm^3). For the metastatic gastric carcinoma, 10^6 MKN45-P cells in PBS were injected intraperitoneally in 8-week old female nude mice. Mice were used for homing studies two weeks later. For the metastatic melanoma model, 2×10^5 B16F10 cells were injected intravenously in 100 μL of PBS in C57 BL6 mice. The mice were used for homing studies 10 days after. For the angiogenic glioblastoma model, WT-GBM 24, 7×10^5 cells were stereotactically injected in the right striatum of Fox/Nu mice 2 mm lateral and posterior of bregma of 2.5 mm deep. The mice were used for homing studies 6-7 days after the injection.
For free peptide homing studies, mice were injected intravenously with 30 nmoles of FAM-peptides in 100 μL of PBS. For nanoparticle homing studies-FAM-UNO—NP-PTX-, mice were injected intravenously in mice bearing MCF-7 breast tumors with 1 mg of Polymer in 100 μL pf PBS and allowed to circulate for 6 h. For tissue collection, the mice were anesthetized and the tissues collected and immediately placed in 4% cold PFA and left overnight at 4-C. Tissues were washed with PBS for 2 h at room temperature and cryoprotected with sucrose 15% at 4-C overnight and then in sucrose 30% at 4·C overnight. […] FAM was detected using Rabbit anti-FITC (Invitrogen, CA, USA. Catalog # A-889) at a dilution of 1/100 and using Alexa Fluor-546 anti-rabbit antibody (Invitrogen, Ca, USA. Catalog # A-11035) at a dilution of 1/200.

[4] = test system: MEMs in B16F10 melanoma lung metastases; conditions: 30 nmoles i.v., 2 h
Description: as §1
as §2, with “For the angiogenic glioblastoma model, WT-GBM 24, 7×10^5 cells were stereotactically injected in the right striatum of Fox/Nu mice 2 mm lateral and posterior of bregma of 2.5 mm deep. The mice were used for homing studies 6-7 days after the injection.” left out
(§3) For free peptide homing studies, mice were injected intravenously with 30 nmoles of FAM-peptides in 100 μL of PBS. […] FAM was detected using Rabbit anti-FITC (Invitrogen, CA, USA. Catalog # A-889) at a dilution of 1/100 and using Alexa Fluor-546 anti-rabbit antibody (Invitrogen, Ca, USA. Catalog # A-11035) at a dilution of 1/200.

[5] = test system: MEMs in MKN45-P tumors; conditions: 30 nmoles i.v., 2 h
Description: as §1
as §2, with “For the angiogenic glioblastoma model, WT-GBM 24, 7×10^5 cells were stereotactically injected in the right striatum of Fox/Nu mice 2 mm lateral and posterior of bregma of 2.5 mm deep. The mice were used for homing studies 6-7 days after the injection.” left out
as §3

[6] = test system: MRC1/CD206-expressing tumor-associated macrophages (MEMs) in 4T1 tumors; experiment: Free peptide homing and immunofluorescence in the orthotopic 4T1 breast tumor model; conditions: 30 nmoles i.v., 2 h circulation
Description: (SEQ ID NO: 5) control peptide were injected intravenously into 4T1 tumor-bearing mice and allowed to circulate for 2 h. Mice were then sacrificed and tumor and tissues were analyzed by immunofluorescence using rabbit anti-FAM (green) and rat anti-CD206 or rat anti-TIE2 (red) antibodies, and counterstained with DAPI. All images were taken under the same imaging conditions. FAM-UNO accumulated in macrophages within tumors and lymph nodes positive for CD206 staining (A, B, C) and TIE2 (D, and H: Blow up of D). […] To ascertain that anti-CD206 is capable of detecting CD206 in the liver, an image was acquired with longer exposure time from an uninjected animal (FIG. 25). […] Green: FAM-peptide; Red: CD206 or TIE2, Blue: DAPI. Representative fields from multiple sections prepared from at least 3 tumors (n≥3 mice) are shown.
as §2
For free peptide homing studies, mice were injected intravenously with 30 nmoles of FAM-peptides in 100 μL of PBS. For nanoparticle homing studies-FAM-UNO—NP-PTX-, mice were injected intravenously in mice bearing MCF-7 breast tumors with 1 mg of Polymer in 100 μL pf PBS and allowed to circulate for 6 h. For tissue collection, the mice were anesthetized and the tissues collected and immediately placed in 4% cold PFA and left overnight at 4-C. Tissues were washed with PBS for 2 h at room temperature and cryoprotected with sucrose 15% at 4-C overnight and then in sucrose 30% at 4·C overnight. The tumor and the control organs were placed together in the same block with OCT compound (Leica Biosystems, Wetzlar, Germany), snap-frozen in isopentane, and sectioned at 10 μm. FAM was detected using Rabbit anti-FITC (Invitrogen, CA, USA. Catalog # A-889) at a dilution of 1/100 and using Alexa Fluor-546 anti-rabbit antibody (Invitrogen, Ca, USA. Catalog # A-11035) at a dilution of 1/200. CD31 was detected using rat anti-mouse CD31 (BD Biosciences, CA, USA. Catalog #: 553370), TIE2 was detected using rat anti-mouse TIE2 (Biolegend, CA, USA. Catalog #124001), CD209 was detected using rat anti-mouse CD209 (Biolegend, CA, USA. Catalog #147802), HLA ABC was detected using rat anti Human HLA ABC (Bio-Rad, CA, USA. Product code MCA485G), and CD206 was detected using ratanti-mouse CD206 (Bio-Rad, CA, USA. Product code MCA2235GA); using 1/100 primary antibody dilution and Alexa Fluor-647 anti-Rat antibody (Invitrogen, CA, USA. Catalog #21247) at 1/200 dilution. To quantify FAM signal from confocal images, the green channel of images taken by using 20× magnification objective was opened with ImageJ, converted to 8-bit grayscale and the integrated pixel intensity was measured. Different regions of tumors from three different mice were used.

Row | Substance | overrepresentation of phage in peritoneal cells from 4T1 tumor-bearing mice versus healthy mice ([1]; library injected i.p., 2 h) [fold] | representation among sequenced phage clones ([1]; peritoneal cells of 4T1 tumor mice) | position of the phage clone in the list of hits [2] | accumulation in tumor [3] | accumulation in tumor ([3]; listed as FAM-Control peptide) | homing to melanoma lung metastases [4] | accumulation in MEMs / CD206+ cells [5] | accumulation in MEMs / tumor homing [6]
1 | CSPGAKVRC [peptide codenamed UNO, identified by in vivo phage display] | ~10 | most highly represented non-truncated peptide | 2140 | – | – | – | – | –
2 | FAM-CRKQGEAKC: FAM-labeled control peptide CRKQGEAKC (SEQ ID NO: 5) of the same charge and molecular weight as FAM-UNO (not fully specified; FAM label) [reference compound] | – | – | – | did not accumulate in the tumor | Little to no | Little to no | no accumulation was detected in CD206^+ cells | no tumor homing
